Experimental data from PubChem BioAssay AID330 (DTP/NCI, 2004).
“And” between values parts separate entries of the source, which are not always exact repeats. Identical values can stand only once. Inconclusive results and toxic doses are left out.

Tested on: P388 leukemia ip, CD2F1 mice, survival T/C
Assay: NCI In Vivo Anticancer Drug Screen. Data for tumor model P388 Leukemia (intraperitoneal) in CD2F1 (CDF1) mice
Settings: endpoint: median survival time, higher = longer survival
Outline: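 Mice carrying the transplanted tumor received test compound or vehicle. Survival was recorded in each group, and the value is the treated-group measurement divided by that of the vehicle-treated control group.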

[1] = dose: 100.0 mg/kg/injection, schedule: Q01DX001 (ip), vehicle: saline with Tween-80
[2] = dose: 200.0 mg/kg/injection, schedule: Q01DX001 (ip), vehicle: saline with Tween-80
[3] = dose: 400.0 mg/kg/injection, schedule: Q01DX001 (ip), vehicle: saline with Tween-80
[4] = dose: 50.0 mg/kg/injection, schedule: Q01DX009 (ip), vehicle: saline with Tween-80
[5] = dose: 100.0 mg/kg/injection, schedule: Q01DX009 (ip), vehicle: saline with Tween-80
[6] = dose: 200.0 mg/kg/injection, schedule: Q01DX009 (ip), vehicle: saline with Tween-80
[7] = dose: 25.0 mg/kg/injection, schedule: Q01DX005 (ip), vehicle: saline with Tween-80
[8] = dose: 50.0 mg/kg/injection, schedule: Q01DX005 (ip), vehicle: saline with Tween-80
[9] = dose: 100.0 mg/kg/injection, schedule: Q04DX003 (ip), vehicle: Klucel (hydroxypropylcellulose) (HPC)
[10] = dose: 200.0 mg/kg/injection, schedule: Q04DX003 (ip), vehicle: Klucel (hydroxypropylcellulose) (HPC)

In the case of CC(SCc1ccccc1)C(NC(=O)CCl)C(=O)O (configuration not stated), the T/C [1] is reported as 100 % of control, the T/C [2] is reported as 97 % of control and the T/C [3] is reported as 91 % of control.
In the case of O=C(Nc1ccccc1Br)c1cccc([N+](=O)[O-])c1O, the T/C [4] is reported as 107 % of control, the T/C [5] is reported as 98 % of control and the T/C [6] is reported as 97 % of control.
For C=CC(C=C)O[Si](C)(C)C(C)(C)C, the T/C (dose: 23.0 mg/kg/injection, schedule: Q01DX005 (ip), vehicle: saline) was 101 % of control, the T/C (dose: 46.0 mg/kg/injection, schedule: Q01DX005 (ip), vehicle: saline) was 105 % of control and the T/C (dose: 92.0 mg/kg/injection, schedule: Q01DX005 (ip), vehicle: saline) was 105 % of control.
For Ic1sc(I)c(I)c1I, the T/C (dose: 6.25 mg/kg/injection, schedule: Q01DX001 (ip), vehicle: saline with Tween-80) was 100 % of control, the T/C (dose: 12.5 mg/kg/injection, schedule: Q01DX001 (ip), vehicle: saline with Tween-80) was 100 % of control and the T/C (dose: 25.0 mg/kg/injection, schedule: Q01DX001 (ip), vehicle: saline with Tween-80) was 105 % of control.
In the case of COc1ccc2c(c1)c(NCCCCCC#N)cc(C)[n+]2C, the T/C (dose: 12.5 mg/kg/injection, schedule: Q01DX005 (ip), vehicle: saline with Tween-80) is reported as 100 % of control, the T/C [7] is reported as 100 % of control and the T/C [8] is reported as 105 % of control.
For S=P(N1CC1)(N1CC1)N1CC1, the T/C (dose: 0.62 mg/kg/injection, schedule: Q01DX005 (ip), vehicle: saline) was 100 % of control, the T/C (dose: 0.75 mg/kg/injection, schedule: Q01DX005 (ip), vehicle: saline) was 118 % of control and the T/C (dose: 0.75 mg/kg/injection, schedule: Q01DX009 (ip), vehicle: saline) was 106 % of control. The T/C (dose: 1.25 mg/kg/injection, schedule: Q01DX005 (ip), vehicle: saline) was 115 % of control, the T/C (dose: 1.25 mg/kg/injection, schedule: Q04DX003 (ip), vehicle: water) was 101 % of control and 110 % of control (2×) and the T/C (dose: 1.5 mg/kg/injection, schedule: Q01DX005 (ip), vehicle: saline) was 114 % of control and 120 % of control. The T/C (dose: 2.0 mg/kg/injection, schedule: Q01DX009 (ip), vehicle: saline) was 124 % of control, the T/C (dose: 2.5 mg/kg/injection, schedule: Q04DX003 (ip), vehicle: water) was 110 % of control and the T/C (dose: 3.0 mg/kg/injection, schedule: Q01DX005 (ip), vehicle: saline) was 163 % of control. The T/C (dose: 3.0 mg/kg/injection, schedule: Q01DX009 (ip), vehicle: saline) was 163 % of control and 174 % of control, the T/C (dose: 3.24 mg/kg/injection, schedule: Q04DX002 (ip), vehicle: saline) was 124 % of control and the T/C (dose: 4.0 mg/kg/injection, schedule: Q01DX009 (ip), vehicle: saline) was 178 % of control. For the same compound, the T/C (dose: 5.0 mg/kg/injection, schedule: Q01DX005 (ip), vehicle: saline) was 169 % of control, the T/C (dose: 5.0 mg/kg/injection, schedule: Q04DX003 (ip), vehicle: water) was 163 % of control and the T/C (dose: 6.0 mg/kg/injection, schedule: Q01DX005 (ip), vehicle: saline) was 181 % of control and 207 % of control and 90 % of control. For the same compound, the T/C (dose: 8.0 mg/kg/injection, schedule: Q01DX009 (ip), vehicle: saline) was 101 % of control, the T/C (dose: 9.0 mg/kg/injection, schedule: Q04DX002 (ip), vehicle: saline) was 166 % of control and the T/C (dose: 10.0 mg/kg/injection, schedule: Q04DX003 (ip), vehicle: water) was 159 % of control and 200 % of control and 229 % of control. The T/C (dose: 12.0 mg/kg/injection, schedule: Q01DX005 (ip), vehicle: saline) was 88 % of control, the T/C (dose: 15.0 mg/kg/injection, schedule: Q04DX002 (ip), vehicle: saline) was 197 % of control and the T/C (dose: 20.0 mg/kg/injection, schedule: Q04DX003 (ip), vehicle: water) was 110 % of control and 90 % of control and 92 % of control. The T/C (dose: 25.0 mg/kg/injection, schedule: Q04DX002 (ip), vehicle: saline) was 240 % of control.
For C=C1C=C(C)C(=O)O1, the T/C [1] was 99 % of control, the T/C [2] was 103 % of control and the T/C [3] was 105 % of control.
CCc1c(-c2ccccc2)[nH]c2ccccc12 was tested, and the T/C (dose: 25.0 mg/kg/injection, schedule: Q01DX009 (ip), vehicle: saline with Tween-80) was 105 % of control, the T/C (dose: 50.0 mg/kg/injection, schedule: Q01DX009 (ip), vehicle: saline + alcohol) was 116 % of control and the T/C [4] was 100 % of control. The T/C (dose: 100.0 mg/kg/injection, schedule: Q01DX009 (ip), vehicle: saline + alcohol) was 112 % of control, the T/C [5] was 115 % of control and the T/C (dose: 200.0 mg/kg/injection, schedule: Q01DX009 (ip), vehicle: saline + alcohol) was 103 % of control. The T/C (dose: 400.0 mg/kg/injection, schedule: Q01DX009 (ip), vehicle: saline + alcohol) was 108 % of control.
In the case of CCCCCCCCCCCC(=O)N(CCOC(=O)c1ccccc1)CCOC(=O)c1ccccc1, the T/C [4] is reported as 101 % of control, the T/C [5] is reported as 93 % of control and the T/C [6] is reported as 107 % of control.
For O=N[O-].[Co].[N-]=C=S.[NH2-].[NH2-].[NH2-].[NH2-], the T/C (dose: 12.5 mg/kg/injection, schedule: Q04DX003 (ip), vehicle: saline with Tween-80) was 110 % of control, the T/C (dose: 25.0 mg/kg/injection, schedule: Q04DX003 (ip), vehicle: saline with Tween-80) was 120 % of control and the T/C (dose: 50.0 mg/kg/injection, schedule: Q04DX003 (ip), vehicle: saline with Tween-80) was 120 % of control.
CCN(CC)CCOc1ccccc1C(C)=O was tested, and the T/C [7] was 93 % of control and the T/C [8] was 99 % of control.
In the case of CC1CCCC(C2CC3CCCCC3C(N)[N-]2)[N-]1.CC1CCCC(C2CC3CCCCC3C(N)[N-]2)[N-]1.O=[N+]([O-])O.[Cu+] (configuration not stated), the T/C (dose: 25.0 mg/kg/injection, schedule: Q04DX002 (ip), vehicle: suspension in saline) is reported as 93 % of control, the T/C (dose: 50.0 mg/kg/injection, schedule: Q04DX002 (ip), vehicle: suspension in saline) is reported as 97 % of control and the T/C (dose: 100.0 mg/kg/injection, schedule: Q04DX002 (ip), vehicle: suspension in saline) is reported as 99 % of control and 97 % of control. The T/C (dose: 200.0 mg/kg/injection, schedule: Q04DX002 (ip), vehicle: suspension in saline) was 96 % of control.
For O=C(NC1CCCCC1)OCc1c(COC(=O)NC2CCCCC2)c2cccn2c2c1cnn2-c1ccccc1, the T/C (dose: 15.0 mg/kg/injection, schedule: Q01DX005 (ip), vehicle: saline with Tween-80) was 93 % of control, the T/C (dose: 30.0 mg/kg/injection, schedule: Q01DX005 (ip), vehicle: saline with Tween-80) was 88 % of control and 89 % of control and the T/C (dose: 120.0 mg/kg/injection, schedule: Q01DX005 (ip), vehicle: saline with Tween-80) was 92 % of control and 96 % of control. The T/C (dose: 240.0 mg/kg/injection, schedule: Q01DX005 (ip), vehicle: saline with Tween-80) was 99 % of control.
In the case of CCc1[nH]c2ccccc2c1C(=O)c1cccnc1, the T/C (dose: 50.0 mg/kg/injection, schedule: Q04DX003 (ip), vehicle: Klucel (hydroxypropylcellulose) (HPC)) is reported as 101 % of control, the T/C [9] is reported as 97 % of control and the T/C [10] is reported as 100 % of control.
For O=[N+]([O-])c1ccc2c(c1)Oc1cccnc1[Se]2, the T/C (dose: 60.0 mg/kg/injection, schedule: Q01DX005 (ip), vehicle: Klucel (hydroxypropylcellulose) (HPC)) was 105 % of control, the T/C (dose: 120.0 mg/kg/injection, schedule: Q01DX005 (ip), vehicle: Klucel (hydroxypropylcellulose) (HPC)) was 95 % of control and the T/C (dose: 240.0 mg/kg/injection, schedule: Q01DX005 (ip), vehicle: Klucel (hydroxypropylcellulose) (HPC)) was 90 % of control.
COC(=O)c1n[nH]nc1CC(N)=O was tested, and the T/C (dose: 50.0 mg/kg/injection, schedule: Q01DX005 (ip), vehicle: saline) was 105 % of control, the T/C (dose: 100.0 mg/kg/injection, schedule: Q01DX005 (ip), vehicle: saline) was 105 % of control and the T/C (dose: 200.0 mg/kg/injection, schedule: Q01DX005 (ip), vehicle: saline) was 103 % of control.
For COC(=O)C(OC)(OC)C(O)c1ccccc1 (configuration not stated), the T/C (dose: 60.0 mg/kg/injection, schedule: Q01DX005 (ip), vehicle: saline) was 100 % of control, the T/C (dose: 120.0 mg/kg/injection, schedule: Q01DX005 (ip), vehicle: saline) was 106 % of control and the T/C (dose: 240.0 mg/kg/injection, schedule: Q01DX005 (ip), vehicle: saline) was 113 % of control.
In the case of O=C1c2ccccc2C(=O)C1(Br)C(Cl)c1ccccc1 (configuration not stated), the T/C (dose: 50.0 mg/kg/injection, schedule: Q01DX009 (ip), vehicle: Klucel (hydroxypropylcellulose) (HPC)) is reported as 90 % of control, the T/C (dose: 100.0 mg/kg/injection, schedule: Q01DX009 (ip), vehicle: Klucel (hydroxypropylcellulose) (HPC)) is reported as 95 % of control and the T/C [9] is reported as 104 % of control. For the same compound, the T/C [10] was 100 % of control.
With [O-][n+]1ccccc1C(O)CSc1ccccc1 (configuration not stated) the T/C [4] was 100 % of control, the T/C [5] was 101 % of control and the T/C [6] was 100 % of control.
